Key:
Assay type in all cases: in vivo
[1] = tested on: Sphaerotheca fuliginea; assay: Test Example 8: curative effect against cucumber powdery mildew; conditions: no addition
Description: (§1) Cucumber (cultivar: Sagamihanjiro Fushinari) was cultivated in a polyethylene pot having a diameter of 7.5 cm, and when the cucumber reached 1.5 leaf stage, the leaf adaxial surface was sprayed and inoculated with a suspension of conidia of Sphaerotheca fuliginea, the cucumber was cultivated in a room at 20° C. under the light for 3 days, and a chemical solution containing pyriofenone (dosage: 90 g ai/ha) or metrafenone (300 g ai/ha) prepared with an aqueous solution containing each product (0.001 to 5.0 v/v°/0) was applied (amount of solution applied: 800 L/ha) to the leaf adaxial surface by a spray gun. After the chemical solution dried, the cucumber was cultivated in a room at 20° C. under the light for 7 days. The lesion area ratio on the first leaf was examined, and the control value was calculated based on the following formula. Control value=(1−a/b)×100
(§2) a: lesion area ratio in treated plot, b: lesion area ratio in non-treated plot

[2] = tested on: Sphaerotheca fuliginea; assay: Test Example 9: curative effect against cucumber powdery mildew; conditions: no addition
Description: as §1, with “(0.005” for “(0.001”, “1.0” for “5.0”
as §2

[3] = tested on: Sphaerotheca fuliginea; assay: Test Example 5: curative effect against cucumber powdery mildew; conditions: no addition
Description: as §1, with “(0.025” for “(0.001”, “4.0” for “5.0”
as §2

[4] = tested on: Sphaerotheca fuliginea; assay: Test Example 6: curative effect against cucumber powdery mildew; conditions: no addition
Description: as §1, with “product (0.01” for “product (0.001”, “for 6” for “for 7”
as §2

[5] = tested on: Sphaerotheca fuliginea; assay: Test Example 7: curative effect against cucumber powdery mildew; conditions: no addition
Description: as §1, with “product (0.02” for “product (0.001”, “to 0.07” for “to 5.0”, “for 5” for “for 7”
as §2

[6] = tested on: Sphaerotheca fuliginea; assay: Test Example 2: curative effect against cucumber powdery mildew; conditions: pyriofenone 90 g ai/ha, no addition
Description: Cucumber (cultivar: Sagamihanjiro Fushinari) was cultivated in a polyethylene pot having a diameter of 7.5 cm, and when the cucumber reached 1.5 leaf stage, the leaf adaxial surface was sprayed and inoculated with a suspension of conidia of Sphaerotheca fuliginea, the cucumber was cultivated in a room at 20° C. under the light for 3 days, and a chemical solution containing pyriofenone prepared with an aqueous solution containing each product (0.5 v/v°/0) was applied (dosage: 90 g ai/ha, amount of solution applied: 800 L/ha) to the leaf adaxial surface by a spray gun. After the chemical solution dried, the cucumber was cultivated in a room at 20° C. under the light for 6 days. The lesion area ratio on the adaxial surface of the first leaf was examined, and the control value was calculated based on the following formula. In Tables, “no addition” means the above treatment without adding the component (b) (the same applies hereinafter). Control value=(1−a/b)×100
as §2

[7] = tested on: Oidiopsis sicula Scalia; assay: Test Example 11: curative effect against sweet pepper powdery mildew; conditions: no addition
Source text: Sweet pepper (cultivar: Kyonami) was cultivated in a polyethylene pot having a diameter of 7.5 cm, and when the sweet pepper reached 8.5 leaf stage, the sweet pepper was dusted and inoculated with a suspension of conidia of Oidiopsis sicula Scalia, the sweet pepper was cultivated in a greenhouse under the light for 3 days, and a chemical solution containing pyriofenone (dosage: 90 g or 110 g ai/ha) prepared with an aqueous solution containing each product (0.07 to 4.0 v/v %) was applied (amount of solution applied: 600 L/ha) to the leaf adaxial surface by a spray gun. After the chemical solution dried, the cucumber was cultivated in a greenhouse under the light for 17 days. Each of eight lower leaves was investigated, and the disease severity was calculated in accordance with the following index. Further, the control value was calculated from the disease severity.
Disease index 0: No spore formation
Disease index 1: Formation of lesion (spores, foot cells, conidiogenous cells) is observed on the leaf abaxial side with an area of less than 10%.
Disease index 2: Formation of lesion (spores, foot cells, conidiogenous cells) is observed on the leaf abaxial side with an area of from 10% to 25%.
Disease index 3: Formation of lesion (spores, foot cells, conidiogenous cells) is observed on the leaf abaxial side with an area of from 26% to 50%. […]

[8] = tested on: Sphaerotheca fuliginea; assay: Test Example 3: curative effect against cucumber powdery mildew; conditions: pyriofenone 90 g ai/ha, no addition
Description: as §1, with “pyriofenone” for “pyriofenone (dosage: 90 g ai/ha) or metrafenone (300 g ai/ha)”, “product (0.05” for “product (0.001”, “to 0.25” for “to 5.0”, “applied (dosage: 90 g ai/ha, amount” for “applied (amount”, “for 6” for “for 7”
as §2

[9] = tested on: Sphaerotheca fuliginea; assay: Test Example 12: curative effect against cucumber powdery mildew; conditions: pyriofenone 90 g ai/ha, no addition
Description: as §1, with “for 4” for “for 3”, “ai/ha)” for “ai/ha) or metrafenone (300 g ai/ha)”, “product (0.015” for “product (0.001”, “to 0.5 v/v %)” for “to 5.0 v/v°/0)”, “for 6” for “for 7”
as §2

[10] = tested on: Sphaerotheca fuliginea; assay: Test Example 4: curative effect against cucumber powdery mildew; conditions: pyriofenone 90 g ai/ha, no addition
Description: Cucumber (cultivar: Sagamihanjiro Fushinari) was cultivated in a polyethylene pot having a diameter of 7.5 cm, and when the cucumber reached 1.5 leaf stage, the leaf adaxial surface was sprayed and inoculated with a suspension of conidia of Sphaerotheca fuliginea, the cucumber was cultivated in a room at 20° C. under the light to for 3 days, and a chemical solution containing pyriofenone prepared with an aqueous solution containing each product (0.025 to 0.25 v/v°/0) was applied (dosage: 90 g ai/ha, amount of solution applied: 800 L/ha) to the leaf adaxial surface by a spray gun. After the chemical solution dried, the cucumber was cultivated in a greenhouse for 4 days and then cultivated in a room at 20° C. under the light for 5 days. The lesion area ratio on the first leaf was examined, and the control value was calculated based on the following formula. Control value=(1−a/b)×100
as §2

[11] = tested on: Sphaerotheca fuliginea; assay: Test Example 13: penetration effect against cucumber powdery mildew; conditions: pyriofenone 90 g ai/ha, no addition
Description: (§3) Cucumber (cultivar: Sagamihanjiro Fushinari) was cultivated in a polyethylene pot having a diameter of 7.5 cm, and when the cucumber reached 1.5 leaf stage, a chemical solution containing pyriofenone (dosage: 90 g ai/ha) prepared with an aqueous solution containing each product (0.015 to 1.0 v/v°/0) was applied (amount of solution applied: 800 L/ha) to the leaf adaxial surface by a spray gun. After the chemical solution dried, the cucumber was cultivated in a room at 20° C. under the light for 3 days, the leaf abaxial surface was sprayed and inoculated with a suspension of conidia of Sphaerotheca fuliginea, and the cucumber was cultivated in a room at 20° C. under the light for 7 days. The lesion area ratio on the abaxial side of the first leaf was examined, and the control value was calculated based on the following formula. Control value=(1−a/b)×100
as §2

[12] = tested on: Sphaerotheca fuliginea; assay: Test Example 10: penetration effect against cucumber powdery mildew; conditions: pyriofenone 90 g ai/ha, no addition
Description: as §3, with “to 4.0 v/v %)” for “to 1.0 v/v°/0)”, “for 4” for “for 3”, “for 8” for “for 7”
as §2

[13] = tested on: Sphaerotheca fuliginea; assay: Test Example 1: curative effect against cucumber powdery mildew with different temperatures; conditions: pyriofenone 90 g ai/ha, no component (b)
Description: Cucumber (cultivar: Sagamihanjiro Fushinari) was cultivated in a polyethylene pot having a diameter of 7.5 cm, and when the cucumber reached 1.5 leaf stage, the leaf adaxial surface was sprayed and inoculated with a suspension of conidia of Sphaerotheca fuliginea, the cucumber was cultivated in a room at 20° C. or 28° C. under the light for 3 days, and a chemical solution containing pyriofenone was applied (dosage: 90 g ai/ha, amount of solution applied: 800 L/ha) to the leaf adaxial surface by a spray gun. After the chemical solution dried, the cucumber was cultivated in a room at 20° C. or 28° C. under the light for 6 days. The lesion area ratio on the adaxial surface of the first leaf was examined, and the control value was calculated based on the following formula. Control value=(1−a/b)×100
as §2

**Q.** COc1cc(C)c(C(=O)c2c(OC)ccc(Br)c2C)c(OC)c1OC [Metrafenone, metrafenone] was tested. Which “Control value Metrafenone” value ([1]; metrafenone 300 g ai/ha) did it give?
**A.** 60

**Q.** And the “Control value Metrafenone” value ([2]; metrafenone 300 g ai/ha)?
**A.** 75

**Q.** What about the “Control value Metrafenone” value ([3]; metrafenone 300 g ai/ha) of the same compound?
**A.** 65.7

**Q.** What about the “Control value Metrafenone” value ([4]; metrafenone 300 g ai/ha) of the same compound?
**A.** 60.2

**Q.** What about the “Control value Metrafenone” value ([5]; metrafenone 300 g ai/ha) of the same compound?
**A.** 65

**Q.** With COc1cc(C)c(C(=O)c2c(OC)ncc(Cl)c2C)c(OC)c1OC [Pyriofenone, pyriofenone] as the compound, how does the “Control value Pyriofenone” value ([1]; pyriofenone 90 g ai/ha) read?
**A.** 65

**Q.** And the Control value [6]?
**A.** 55

**Q.** What about the “Control value Dosage (g ai/ha) 90” value ([7]; pyriofenone 90 g ai/ha) of the same compound?
**A.** 7.6

**Q.** What about the “Control value Dosage (g ai/ha) 110” value ([7]; pyriofenone 110 g ai/ha) of the same compound?
**A.** 6.1

**Q.** What about the Control value [8] of the same compound?
**A.** 55

**Q.** What about the Control value [9] of the same compound?
**A.** 68

**Q.** And the “Control value Pyriofenone” value ([2]; pyriofenone 90 g ai/ha)?
**A.** 70

**Q.** And the “Control value Pyriofenone” value ([3]; pyriofenone 90 g ai/ha)?
**A.** 63

**Q.** What about the Control value [10] of the same compound?
**A.** 30

**Q.** And the Control value [11]?
**A.** 40

**Q.** What about the Control value [12] of the same compound?
**A.** 12

**Q.** And the “Control value Pyriofenone” value ([4]; pyriofenone 90 g ai/ha)?
**A.** 71.6

**Q.** And the Control value ([13]; 20° C.)?
**A.** 53

**Q.** What about the Control value ([13]; 28° C.) of the same compound?
**A.** 80

**Q.** And the “Control value Pyriofenone” value ([5]; pyriofenone 90 g ai/ha)?
**A.** 65

From patent US11950592B2, “Method for enhancing plant disease controlling effects of aryl phenyl ketone fungicide, and method for controlling plant diseases” (ISHIHARA SANGYO KAISHA, LTD., priority 2016, dated 2024)
